Source: PubChem BioAssay (NCI)
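Five concentrations, 48 hours, 96-well plates. The concentration for full growth arrest is given as TGI.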

Tests used:
Assay in all cases: NCI tumour cell line growth inhibition, 48 h
786-0 renal = test system: 786-0 renal
EKVX NSCLC = test system: EKVX NSCLC
LOX IMVI melanoma = test system: LOX IMVI melanoma
M14 melanoma = test system: M14 melanoma
OVCAR-3 ovarian = test system: OVCAR-3 ovarian
OVCAR-4 ovarian = test system: OVCAR-4 ovarian
SK-OV-3 ovarian = test system: SK-OV-3 ovarian
SR leukemia = test system: SR leukemia
HL-60(TB) leukemia = test system: HL-60(TB) leukemia
T-47D breast = test system: T-47D breast

Measured: TGI

CCc1nnc(CC)n1NCCCC(=O)O
> 100 µM: 786-0 renal | EKVX NSCLC | LOX IMVI melanoma | M14 melanoma | OVCAR-3 ovarian | OVCAR-4 ovarian | SK-OV-3 ovarian | SR leukemia

CC(=O)OCC(=O)[C@@]1(O)CC[C@H]2[C@@H]3CCC4=CC(=O)[C@H](C)C[C@]4(C)[C@H]3[C@@H](O)C[C@@]21C
> 100 µM: 786-0 renal | EKVX NSCLC | HL-60(TB) leukemia | LOX IMVI melanoma | M14 melanoma | OVCAR-3 ovarian | OVCAR-4 ovarian | SK-OV-3 ovarian | SR leukemia

COC(=O)[C@H](Cc1ccccc1)NC(=O)NCCN(CCNC(=O)N[C@@H](Cc1ccccc1)C(=O)OC)C(=O)N[C@@H](Cc1ccccc1)C(=O)OC
49.6 µM: T-47D breast
34.1 µM: 786-0 renal
30 µM: OVCAR-4 ovarian
39.7 µM: OVCAR-3 ovarian
> 61.7 µM: EKVX NSCLC
> 60.8 µM: SK-OV-3 ovarian
76.3 µM: LOX IMVI melanoma
45.7 µM: M14 melanoma

O=C(O)C1C(C(=O)O)C2C(=O)C=CC1N2Cc1ccccc1 (stereo unspecified)
4.31 µM: HL-60(TB) leukemia
19.1 µM: LOX IMVI melanoma
16.3 µM: EKVX NSCLC | OVCAR-4 ovarian
5.99 µM: M14 melanoma
17 µM: SK-OV-3 ovarian
15.2 µM: T-47D breast
11.7 µM: 786-0 renal
10.1 µM: OVCAR-3 ovarian

CC1CC2OC(=O)C3CC(O)CC(=C23)[C@@]12C[C@@H](c1ccoc1)OC2=O (stereo partly specified)
> 100 µM: 786-0 renal | EKVX NSCLC | HL-60(TB) leukemia | LOX IMVI melanoma | M14 melanoma | OVCAR-3 ovarian | OVCAR-4 ovarian | SK-OV-3 ovarian | SR leukemia

O=C(O)c1c[nH]c2c(Sc3ccccc3)nccc2c1=O
> 100 µM: 786-0 renal | EKVX NSCLC | HL-60(TB) leukemia | LOX IMVI melanoma | M14 melanoma | OVCAR-3 ovarian | OVCAR-4 ovarian | SK-OV-3 ovarian | T-47D breast

C/C(=N\N)C(CN(C)C)C(c1ccccc1)c1c(O)c2ccccc2oc1=O (stereo unspecified)
> 100 µM: 786-0 renal | EKVX NSCLC | HL-60(TB) leukemia | LOX IMVI melanoma | M14 melanoma | OVCAR-3 ovarian | OVCAR-4 ovarian | SK-OV-3 ovarian | SR leukemia

O=P(O)(OCC(O)O)OCC(O)O
> 100 µM: 786-0 renal | EKVX NSCLC | HL-60(TB) leukemia | LOX IMVI melanoma | OVCAR-3 ovarian | SK-OV-3 ovarian

CCCCCCn1c(SCC)c2ccccc2c1-c1nc(F)nc(F)n1
> 100 µM: 786-0 renal | EKVX NSCLC | HL-60(TB) leukemia | LOX IMVI melanoma | M14 melanoma | OVCAR-3 ovarian | OVCAR-4 ovarian | SK-OV-3 ovarian | SR leukemia
